Test results from patent US8993589B2, “Imidazopyridine derivatives which inhibit the secretion of gastric acid” (priority 2008, dated 2015).

Tested on: acid secretion in female rats
Test: Inhibiting effect on acid secretion in female rats
Assay type: in vivo, rat (Sprague-Dawley
Settings: rats administered 1 μmol/kg
Experimental: Inhibiting Effect on Acid Secretion in Female Rats
Female rats of the Sprague-Dawley strain were used. They were equipped with cannulated fistulae in the stomach (lumen) and the upper part of the duodenum, for collection of gastric secretions and administration of test substances, respectively. A recovery period of 14 days after surgery was allowed before testing commenced.
Before secretory tests, the animals were deprived of food but not water for 20 h. The stomach was repeatedly washed through the gastric cannula with tap water (+37° C.), and 6 ml Ringer-Glucose given subcutaneously. […] Gastric juice samples were titrated to pH 7.0 with NaOH, 0.1M, and acid output calculated as the product of titrant volume and concentration.
Further calculations were based on group mean responses from 4-6 rats. In the case of administration during stimulation, the acid output during the periods after administration of test substance or vehicle were expressed as fractional responses, setting the acid output in the 30-min period preceding administration to 1.0. Percentage inhibition was calculated from the fractional responses elicited by test compound and vehicle. In the case of administration before stimulation, percentage inhibition was calculated directly from acid output recorded after test compound and vehicle. […]

Compound	maximal inhibition of acid secretion [%]
Cc1cccc(C)c1CNc1cc(C(=O)NCCOC(=O)CCCC(=O)O)cn2c(C)c(C)nc12 [Example 1, 5-{2-[({8-[(2,6-dimethylbenzyl)amino]-2,3-dimethylimidazo[1,2-a]pyridin-6-yl}carbonyl)amino]ethoxy}-5-oxopentanoic acid]	100
Cc1cccc(C)c1CNc1cc(C(=O)NCCOC(=O)CCC(=O)O)cn2c(C)c(C)nc12 [Example 2, 4-{2-[({8-[(2,6-dimethylbenzyl)amino]-2,3-dimethylimidazo[1,2-a]pyridin-6-yl}carbonyl)amino]ethoxy}-4-oxobutanoic acid]	70
